Assay results reported in patent US11555212B2, “Process for the production of sulfated phenolic compounds using modified Escerichia coli” (CysBio ApS, priority 2016, dated 2023).

Key:
[1] = target: T1, RsTAL (Cereibacter sphaeroides, UniProt Q3IWB0); assay: Titers of pHCA and zosteric acid, E. coli co-expressing tyrosine ammonia-lyase and SULT1A1 rat; assay type: cell-based, Rhodobacter sphaeroides; conditions: E. coli BL21(DE3) with SULT1A1 rat and RsTAL; M9, 0.2% glucose, 2 mM tyrosine, 1 mM IPTG; overnight 37° C.; supernatant
T1 construct: were optimized for E. coli and synthesized by GeneArt, amplified by PCR; expressed in transfected cells; host or cells: E. coli BL21(DE3), plasmid pCBJ215
Description: (§1) The concentration of p-courmaric acid (pHCA) and zosteric acid in the supernatant was quantified by high performance liquid chromatography (HPLC) and compared to chemical standards. HPLC was done on a Thermo setup using a HS-F5 column and mobile phases: 5 mM ammonium formate pH 4.0 (A) and acetonitrile (B) at 1.5 mL min-1, using a gradient elution starting at 5% B. From 0.5 min after injection to 7 min, the fraction of B increased linearly from 5% to 60%, and between 9.5 min and 9.6 the fraction of B decreased back to 5%, and remaining there until 12 min. pHCA and zosteric acid were quantified by measuring absorbance at 277 nm.
The genes encoding the tyrosine ammonia-lyases RcTAL (from Rhodobacter capsulatus; SEQ ID NO: 50), RsTAL (from Rhodobacter sphaeroides; SEQ ID NO: 43) and FjTAL (from Flavobacterium johnsoniae; SEQ ID NO: 40) were cloned into expression vectors as follows. […]
Strains harboring recombinant plasmids were pre-cultured in 2×YT liquid medium with 100 μg mL^−1 ampicillin and 50 μg mL^−1 spectinomycin and incubated at 37° C. and 250 rpm overnight. […] The supernatants were then collected by centrifugation twice and applied to HPLC analysis as described in example 1, and the titers of p-coumaric acid (pHCA) and zosteric acid (ZA) were quantified using chemical standards and are presented in the table below.

[2] = target: T2, SULT1A1 human (Homo sapiens, UniProt P50225, V223M); assay: Production of zosteric acid from pHCA in E. coli expressing a sulfotransferase; assay type: cell-based; conditions: E. coli BL21(DE3)pLysS expressing SULT1A1 Homo sapiens; M9 glucose, 0.1 mM IPTG, 0.1 mM pHCA; four days
T2 construct: expressed in transfected cells; host or cells: E. coli BL21(DE3)pLysS
Description: (§2) A range of aryl sulfotransferases including SULT1A1 Rattus norvegicus (SEQ ID NO: 1), SULT1A1 Homo sapiens (SEQ ID NO: 2), SULT1A1 Equus caballus (SEQ ID NO: 3), SULT1A1 Sus scrofa domesticus (SEQ ID NO: 4), SULT1A1 Canis lupus familiaris (SEQ ID NO: 5) and SULT1E1 Gallus gallus domesticus (SEQ ID NO: 6) were expressed in Escherichia coli. […]. The nucleotide sequence of the gene encoding SEQ ID NO: 2 was codon optimized for expression in Escherichia coli (GeneArt, Life Technologies) and amplified by PCR using the primers in Table 1. The pETDuet-1 plasmid was digested with restriction endonucleases NcoI and SalI. The PCR products were then individually cloned into the plasmid pETDuet-1 using the Gibson reaction (New England Biolabs). The resulting plasmids were transformed into BL21(DE3)pLysS (Life Technologies).
(§3) The strains were grown in M9 minimal media containing glucose as a carbon source, and 0.1 mM IPTG for induction of gene expression as well as 0.1 mM p-coumaric acid (pHCA). After four days of growth, samples were withdrawn by filtration and analyzed by HPLC.
as §1

[3] = target: T3, SULT1A1 Canis lupus familiaris (Canis lupus familiaris, UniProt Q29476); assay: as above; assay type: cell-based; conditions: E. coli BL21(DE3)pLysS expressing SULT1A1 Canis lupus familiaris; M9 glucose, 0.1 mM IPTG, 0.1 mM pHCA; four days
T3 construct: 1, 3, 4, 5, and 6 were cloned amplified from liver tissue cDNA; expressed in transfected cells; host or cells: E. coli BL21(DE3)pLysS
Description: as §2, §3, §1

[4] = target: T4, SULT1A1 Rattus norvegicus (Rattus norvegicus, UniProt P17988); assay: as above; assay type: cell-based; conditions: E. coli BL21(DE3)pLysS expressing SULT1A1 Rattus norvegicus; M9 glucose, 0.1 mM IPTG, 0.1 mM pHCA; four days; culture media, HPLC
T4 construct: 1, 3, 4, 5, and 6 were cloned amplified from liver tissue cDNA; expressed in transfected cells
Description: as §2, §3, §1

[5] = target: T2, SULT1A1 human; assay: pHCA and zosteric acid in culture media of E. coli expressing an aryl sulfotransferase in combination with cysDNC and cysQ; assay type: cell-based; conditions: Enzymes: SULT1A1 Homo sapiens, grown as in Example 1 (0.1 mM pHCA)
Description: as §3, §1
The addition of sulfated groups to targets is dependent on supply of the donor molecule 3′-Phosphoadenosine 5′-phosphosulfate (PAPS). We examined if we could increase the production of zosteric acid by overexpressing enzymes providing PAPS and an enzyme that removes the product 3′-Phosphoadenosine 5′-phosphate (PAP).
In E. coli, the genes cysD and cysN encode the two subunits of ATP sulfurylase (EC:2.7.7.4), cysC encodes APS kinase (EC:2.7.1.25), and cysQ encode a PAP phosphatase.
The plasmid pRSFDuet-1 (Life Technologies) was digested by the restriction endonucleases NdeI and BgIII. The gene cluster was inserted into the digested plasmid using the Gibson reaction (New England Biolabs). […] For the combined expression of cysDNC and cysQ in an artificial operon, cysDNCQ, the two parts were amplified by PCR from E. coli MG1655 chromosomal DNA using the primers shown in Table 3. Again the parts were inserted into the digested plasmid. […] The plasmid expressing SULT1A1 Homo sapiens (SEQ ID NO: 2) from example 1 was co-transformed into E. coli BL21(DE3)pLysS cells (Life Technologies) with either the plasmid expressing cysDNC or cysDNCQ.
Cells were grown as in Example 1 and the supernatants were analyzed for product formation as in example 1. The strain expressing SULT1A1 in combination with cysDNCQ was also grown without the addition of IPTIG for induction.

T2 sequence (P50225 whole entry V223M): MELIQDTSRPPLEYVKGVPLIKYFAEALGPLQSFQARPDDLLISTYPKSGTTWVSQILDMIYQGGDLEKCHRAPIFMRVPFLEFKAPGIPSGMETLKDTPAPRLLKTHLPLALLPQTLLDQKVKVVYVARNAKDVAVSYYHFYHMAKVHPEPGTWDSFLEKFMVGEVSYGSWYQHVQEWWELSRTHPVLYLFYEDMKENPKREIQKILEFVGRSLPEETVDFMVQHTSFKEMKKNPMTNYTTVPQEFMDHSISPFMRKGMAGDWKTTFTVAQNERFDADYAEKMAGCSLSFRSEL
T4 sequence (P17988 whole entry): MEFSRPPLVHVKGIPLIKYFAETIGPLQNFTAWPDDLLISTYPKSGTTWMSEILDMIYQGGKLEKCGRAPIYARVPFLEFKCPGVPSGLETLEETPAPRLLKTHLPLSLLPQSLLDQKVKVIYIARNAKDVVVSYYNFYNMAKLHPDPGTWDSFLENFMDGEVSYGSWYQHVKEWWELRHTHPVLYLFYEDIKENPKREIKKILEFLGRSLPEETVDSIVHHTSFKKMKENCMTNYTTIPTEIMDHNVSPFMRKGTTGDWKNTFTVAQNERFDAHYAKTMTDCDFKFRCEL
T3 sequence (Q29476 whole entry): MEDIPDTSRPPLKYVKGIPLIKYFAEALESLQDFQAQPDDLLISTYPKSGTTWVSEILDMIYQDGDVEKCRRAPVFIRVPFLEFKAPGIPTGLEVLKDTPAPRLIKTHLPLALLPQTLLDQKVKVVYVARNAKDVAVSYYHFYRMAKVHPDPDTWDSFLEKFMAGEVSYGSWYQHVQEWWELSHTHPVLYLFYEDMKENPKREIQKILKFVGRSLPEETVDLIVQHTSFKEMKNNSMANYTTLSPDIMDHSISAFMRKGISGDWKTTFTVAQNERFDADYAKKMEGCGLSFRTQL
T1 sequence (Q3IWB0 whole entry Q21E/A24S/I74V/S113A/S143M/R238G/D285G/G287S): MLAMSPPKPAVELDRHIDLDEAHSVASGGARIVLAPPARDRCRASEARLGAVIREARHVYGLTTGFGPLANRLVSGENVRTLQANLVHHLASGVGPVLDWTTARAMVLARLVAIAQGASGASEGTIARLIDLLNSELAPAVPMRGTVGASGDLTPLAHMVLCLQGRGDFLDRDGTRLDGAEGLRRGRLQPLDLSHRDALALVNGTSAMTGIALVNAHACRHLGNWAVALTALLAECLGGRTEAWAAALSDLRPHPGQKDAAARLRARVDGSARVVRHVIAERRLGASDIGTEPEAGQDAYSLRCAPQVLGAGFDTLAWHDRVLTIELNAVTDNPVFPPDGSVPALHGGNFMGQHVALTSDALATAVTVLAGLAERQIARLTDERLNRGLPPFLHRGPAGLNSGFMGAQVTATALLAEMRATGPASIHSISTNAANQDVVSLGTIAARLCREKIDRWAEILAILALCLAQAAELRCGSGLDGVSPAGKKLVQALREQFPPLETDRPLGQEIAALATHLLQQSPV

| Structure (SMILES) | Titer of zosteric acid (ZA) [1] | Zosteric acid formed [2] | Zosteric acid formed [3] | Zosteric acid formed [4] | Zosteric acid formed ([5]; CysDNC, induction 0.1 mM IPTG) | Zosteric acid formed ([5]; CysDNCQ, induction 0.1 mM IPTG) | Zosteric acid formed ([5]; induction 0.1 mM IPTG) | Titer of p-coumaric acid (pHCA) [1] | pHCA remaining [2] | pHCA remaining [3] | pHCA remaining [4] | pHCA remaining ([5]; CysDNC, induction 0.1 mM IPTG) | pHCA remaining ([5]; CysDNCQ, induction 0.1 mM IPTG) | pHCA remaining ([5]; CysDNCQ, induction None) | pHCA remaining ([5]; induction 0.1 mM IPTG) |
| --- | --- | --- | --- | --- | --- | --- | --- | --- | --- | --- | --- | --- | --- | --- | --- |
| O=C(O)/C=C/c1ccc(OS(=O)(=O)O)cc1 [Zosteric acid, zosteric acid] | <1 µM | 0.02 mM | 0.01 mM | 0.10 mM | 0.06 mM | 0.09 mM | 0.02 mM |  |  |  |  |  |  |  |  |
| O=C(O)/C=C/c1ccc(O)cc1 [pHCA, p-coumaric acid] |  |  |  |  |  |  |  | 78 μM | 0.08 mM | 0.10 mM | 0.02 mM | 0.06 mM | 0.04 mM | 0.10 mM | 0.08 mM |
